Where “and” joins values, the source holds several entries; their conditions need not be identical. Equal values may be shown once.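 Where inhibition never reached the appropriate level, the endpoint shown equals the highest concentration tested. Otherwise, values were interpolated linearly from a five-concentration, 48-hour dose response in 96-well plates. GI50 is the concentration that inhibits growth by half. TGI marks complete inhibition of growth.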
Experiments:
Assay in all cases: DTP human tumour cell line panel, 48 h
SK-OV-3 ovarian = test system: SK-OV-3 ovarian
OVCAR-4 ovarian = test system: OVCAR-4 ovarian
786-0 renal = test system: 786-0 renal
HT29 colon = test system: HT29 colon
A549 NSCLC = test system: A549 NSCLC
NCI-H226 lung = test system: NCI-H226 lung
MOLT-4 leukemia = test system: MOLT-4 leukemia
DU-145 prostate = test system: DU-145 prostate
MCF7 breast = test system: MCF7 breast
NCI/ADR-RES ovarian = test system: NCI/ADR-RES ovarian

| Structure (SMILES) | TGI (SK-OV-3 ovarian) | TGI (OVCAR-4 ovarian) | TGI (786-0 renal) | TGI (HT29 colon) | TGI (A549 NSCLC) | TGI (NCI-H226 lung) | TGI (MOLT-4 leukemia) | TGI (DU-145 prostate) | GI50 (MCF7 breast) | TGI (MCF7 breast) | GI50 (NCI/ADR-RES ovarian) | TGI (NCI/ADR-RES ovarian) | GI50 (OVCAR-4 ovarian) | GI50 (DU-145 prostate) | GI50 (786-0 renal) | GI50 (A549 NSCLC) | GI50 (NCI-H226 lung) | GI50 (MOLT-4 leukemia) | GI50 (SK-OV-3 ovarian) | GI50 (HT29 colon) |
| --- | --- | --- | --- | --- | --- | --- | --- | --- | --- | --- | --- | --- | --- | --- | --- | --- | --- | --- | --- | --- |
| Cc1ccc(S(=O)(=O)N2CCC3(C(/C=C/c4ccccc4)=Nc4ccccc43)C2c2ccccc2)cc1 (centres undefined) | > 100 µM | > 100 µM | > 100 µM | > 100 µM | > 100 µM | > 100 µM |  |  |  |  |  |  |  |  |  |  |  |  |  |  |
| C=C(CN(CC(=C)C(=O)c1ccccc1)C(C)(C)C)C(=O)c1ccccc1 | 34.4 µM | 29.3 µM | 24.5 µM | 41.9 µM | > 77.7 µM | 48.4 µM | 10.2 µM | 40.3 µM |  |  |  |  |  |  |  |  |  |  |  |  |
| N#C/C(=C\c1ccc(Br)cc1)n1nnc2cccc(F)c21 |  | 3.49 µM | 2.93 µM |  | 13.2 µM | 3.45 µM |  | 2.85 µM | 0.445 µM | 1.98 µM | 0.398 µM | 2.19 µM | 1.65 µM | 1.51 µM | 1.48 µM | 2.8 µM | 1.57 µM |  |  |  |
| Cn1cc2c(n1)c(N/N=C/c1ccccc1)nn1nnnc21 | > 100 µM | > 100 µM | > 100 µM | > 100 µM | > 100 µM | > 100 µM | > 100 µM |  |  |  |  |  |  |  |  |  |  |  |  |  |
| CC(=O)OCC1OC(OC2CC3C(C)(C)C(OC(C)=O)CC[C@]3(C)C3CCC45CC4(CC[C@H]5C(C)CC(O)C4OC4(C)C)[C@]23C)C(O)C(O)C1O (some centres undefined) | 8.7 µM and 11.2 µM | 6.27 µM and 38.9 µM | 10.6 µM and 14.1 µM | 1.73 µM and 3.38 µM | 8.37 µM and 15.2 µM | 11.6 µM | 1.09 µM and 7.69 µM |  |  |  |  |  | 15.3 µM |  | 3.58 µM | 4.26 µM |  | 2.52 µM | 3.22 µM | 1.86 µM |
| CN(C)c1ccc(/C=C2\CNC/C(=C\c3ccc(N(C)C)cc3)C2=O)cc1 | > 100 µM | 29.7 µM | 31.6 µM | 24.1 µM | 56.5 µM | > 100 µM | > 100 µM |  |  |  |  |  |  |  |  |  |  |  |  |  |
| NC(=O)c1csc(C2C=CC(CO)O2)n1 (centres undefined) | > 100 µM | > 100 µM | > 100 µM | > 100 µM | > 100 µM | > 100 µM | > 100 µM |  |  |  |  |  |  |  |  |  |  |  |  |  |
| Cc1cc(S(=O)(=O)Nc2nc3ccsc3c(=O)n2Cc2ccco2)c(S)cc1Cl |  | > 100 µM | > 100 µM | > 100 µM | > 100 µM | > 100 µM | 84.2 µM | > 100 µM | > 100 µM | > 100 µM | > 100 µM | > 100 µM | > 100 µM | > 100 µM | > 100 µM | > 100 µM | > 100 µM | 19.4 µM |  | > 100 µM |
| C/C(=N\NC(=O)CC(=O)Nc1ccc(Cl)cc1)c1cc2ccccc2oc1=O | > 100 µM |  | > 100 µM | > 100 µM | > 100 µM | > 100 µM | > 100 µM |  |  |  |  |  |  |  |  |  |  |  |  |  |
| O=C1C(Cl)=C(Nc2ccc3cn[nH]c3c2)C(=O)c2ccccc21 | 24.3 µM | 2.58 µM | 3.21 µM | 3.72 µM | 5.86 µM |  | 4.15 µM | 2.39 µM | 1.09 µM | 2.58 µM | 1.62 µM | 3.42 µM | 1.31 µM | 1.17 µM | 1.81 µM | 2.38 µM |  | 1.47 µM | 12 µM | 1.98 µM |
| COc1cc2c3c(n(CCN)c(=O)c2cc1OC)-c1cc2c(cc1C3=O)OCO2 | > 100 µM | 3.02 µM | 0.502 µM |  | > 23.7 µM | 2.55 µM | > 100 µM | 1.13 µM | 0.0832 µM | 2.98 µM | 0.152 µM | 0.808 µM | 1.43 µM | 0.0401 µM | 0.14 µM | 0.506 µM | 0.769 µM | 0.084 µM | 2.57 µM |  |
| O=C([O-])c1ccc2c(c1)-c1nc-2nc2[n-]c(nc3nc(nc4[n-]c(n1)c1ccc(C(=O)[O-])cc41)-c1cc(C(=O)[O-])ccc1-3)c1ccc(C(=O)[O-])cc21.[Fe+2] | > 50 µM | > 50 µM | > 50 µM | > 50 µM | > 50 µM | > 50 µM | > 50 µM |  |  |  |  |  | 49.2 µM |  | > 30.7 µM | > 50 µM | > 50 µM | > 50 µM | > 50 µM | > 50 µM |
| Cc1c(O)c(=O)ccn1C1OC(CO)C(O)C1O (centres undefined) | > 100 µM | > 100 µM | > 100 µM | > 100 µM | > 100 µM | > 100 µM | > 100 µM |  |  |  |  |  |  |  |  |  |  |  |  |  |
| COC(=O)C1=C(C(=O)OC)C23C=CC=CC24C(C(=O)OC)=C(C(=O)OC)C4C1C3 (centres undefined) |  | > 100 µM | > 100 µM | > 100 µM | > 100 µM |  | > 100 µM |  |  |  |  |  |  |  |  |  |  |  |  |  |
| O=C1CC2CCCCC2=C1O (centres undefined) | > 100 µM | > 100 µM | > 100 µM |  | > 100 µM |  | > 100 µM |  |  |  |  |  |  |  |  |  |  |  |  |  |
| COC(=O)c1ccccc1NC(=O)C(=O)CC(=O)c1ccccc1NC1=CC(=O)C(=O)c2ccccc21 | 96.1 µM | 36.2 µM | 30.8 µM | > 74.9 µM | 41 µM | 49.7 µM | 51.1 µM | > 53.8 µM |  | 25.5 µM |  |  |  |  |  |  |  |  |  |  |
| CCCCCCCCCCCCCC/C(C(=O)OC)=C(/O)C(=O)OCC | > 100 µM | > 100 µM | 38.2 µM | > 100 µM | 64.9 µM | > 100 µM | > 100 µM |  |  |  |  |  |  |  |  |  |  |  |  |  |
| CCCCn1c2c(c3ccccc3c1=O)C(=O)c1ccccc1-2 | > 100 µM | 38.4 µM | > 100 µM | > 100 µM | > 100 µM | > 100 µM |  | > 100 µM |  | > 100 µM |  | > 100 µM |  |  |  |  |  |  |  |  |
| CC1=C(C(=O)Nc2ccccc2C)C(c2ccc([N+](=O)[O-])cc2)C(C(=O)Nc2ccccc2C)=C(C)N1 | > 100 µM | > 100 µM | > 100 µM | > 100 µM | > 100 µM | > 100 µM | > 100 µM |  |  |  |  |  |  |  |  |  |  |  |  |  |
| C=C(CN1CCN(c2cccc(C(F)(F)F)c2)CC1)c1ccc(C(=O)Nc2ccccc2N)cc1 |  | 41 µM | 8.96 µM | > 50 µM | > 27.3 µM | 20.1 µM | 1.29 µM | 7.23 µM | 1.25 µM | > 27.5 µM | 2.34 µM | > 50 µM | 3.94 µM | 1.36 µM | 1.1 µM | 1.48 µM | 1.89 µM | 0.13 µM |  | 1.46 µM |
| CCOP(=O)(CC(=O)C1=C(O)C(CCCNC(=O)OC(C)(C)C)N(Cc2ccc(OC)c(OC)c2)C1=O)OCC (centres undefined) |  | > 100 µM | > 100 µM | > 100 µM | > 100 µM | > 100 µM | > 100 µM |  |  |  |  |  |  |  |  |  |  |  |  |  |

From PubChem BioAssay (NCI)
